Values joined by “and” are separate entries in the source; they are usually repeats but may differ in a detail not shown here. Identical values can stand only once. Like-named read-outs stand apart in the source and are kept apart here.
Legend:
[1] = target: T1, MLK1(h) (Homo sapiens, UniProt P80192); experiment: biochemical; design: In vitro kinase panel profiling, per cent remaining kinase activity at 10 uM; details: atp_concentration=45, read-out: % of control remaining
T1 construct: gene MAP3K9
Excerpt: (§1) We derisk potential for off-target activity by profiling the compound in a CEREP panel, a standard secondary pharmacology assessment, as well as a kinase panel to derisk a potential hinge-binding motif in our leads, and a PARP panel to derisk activity against human […]. Reassuringly, the compounds are selective, with the only off-targets being moderate human CHRM2 and KOR receptors activity associated with ASAP-0011198.

[2] = target: PAK2(h) (Homo sapiens, UniProt Q13177); experiment: biochemical; design: In vitro kinase panel profiling, per cent remaining kinase activity at 10 uM; details: atp_concentration=90, read-out: % of control remaining
Excerpt: as §1

[3] = target: KDR(h) (Homo sapiens, UniProt P35968); experiment: biochemical; design: In vitro kinase panel profiling, per cent remaining kinase activity at 10 uM; details: atp_concentration=90, read-out: % of control remaining
Excerpt: as §1

[4] = target: T2, ROCK-I(h) (Homo sapiens, UniProt Q13464); experiment: biochemical; design: In vitro kinase panel profiling, per cent remaining kinase activity at 10 uM; details: atp_concentration=70, read-out: % of control remaining
T2 construct: gene ROCK1
Excerpt: as §1

[5] = target: Fyn(h) (Homo sapiens, UniProt P06241); experiment: biochemical; design: In vitro kinase panel profiling, per cent remaining kinase activity at 10 uM; details: atp_concentration=70, read-out: % of control remaining
Excerpt: as §1

[6] = target: T3, CaMKI(h) (Homo sapiens, UniProt Q14012); experiment: biochemical; design: In vitro kinase panel profiling, per cent remaining kinase activity at 10 uM; details: atp_concentration=200, read-out: % of control remaining
T3 construct: gene CAMK1
Excerpt: as §1

[7] = target: mTOR(h) (Homo sapiens, UniProt P42345); experiment: biochemical; design: In vitro kinase panel profiling, per cent remaining kinase activity at 10 uM; details: atp_concentration=70, read-out: % of control remaining
Excerpt: as §1

[8] = target: T4, CK1γ1(h) (Homo sapiens, UniProt Q9HCP0); experiment: biochemical; design: In vitro kinase panel profiling, per cent remaining kinase activity at 10 uM; details: atp_concentration=15, read-out: % of control remaining
T4 construct: gene CSNK1G1
Excerpt: as §1

[9] = target: T5, c-RAF(h) (Homo sapiens, UniProt P04049); experiment: biochemical; design: In vitro kinase panel profiling, per cent remaining kinase activity at 10 uM; details: atp_concentration=120, read-out: % of control remaining
T5 construct: gene RAF1
Excerpt: as §1

[10] = target: T6, CHK1(h) (Homo sapiens, UniProt O14757); experiment: biochemical; design: In vitro kinase panel profiling, per cent remaining kinase activity at 10 uM; details: atp_concentration=90, read-out: % of control remaining
T6 construct: gene CHEK1
T6 sequence (O14757 1-476): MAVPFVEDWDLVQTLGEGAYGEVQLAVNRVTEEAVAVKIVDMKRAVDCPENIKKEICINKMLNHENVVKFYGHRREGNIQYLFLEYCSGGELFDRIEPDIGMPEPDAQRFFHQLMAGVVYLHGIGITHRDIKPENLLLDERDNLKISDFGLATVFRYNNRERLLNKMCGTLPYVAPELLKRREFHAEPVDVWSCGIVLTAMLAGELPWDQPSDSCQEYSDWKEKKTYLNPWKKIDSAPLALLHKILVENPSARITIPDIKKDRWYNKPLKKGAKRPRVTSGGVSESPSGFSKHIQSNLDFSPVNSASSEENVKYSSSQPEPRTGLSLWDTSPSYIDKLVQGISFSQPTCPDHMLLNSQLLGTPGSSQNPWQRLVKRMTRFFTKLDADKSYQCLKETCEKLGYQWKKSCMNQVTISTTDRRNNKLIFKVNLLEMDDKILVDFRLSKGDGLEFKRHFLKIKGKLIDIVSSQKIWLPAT
Excerpt: as §1

[11] = target: CDK7/cyclinH/MAT1(h) (Homo sapiens, UniProt P50613); experiment: biochemical; design: In vitro kinase panel profiling, per cent remaining kinase activity at 10 uM; details: atp_concentration=90, read-out: % of control remaining
Excerpt: as §1

[12] = target: EGFR(h) (Homo sapiens, UniProt P00533); experiment: biochemical; design: In vitro kinase panel profiling, per cent remaining kinase activity at 10 uM; details: atp_concentration=10, read-out: % of control remaining
Excerpt: as §1

[13] = target: EphA5(h) (Homo sapiens, UniProt P54756); experiment: biochemical; design: In vitro kinase panel profiling, per cent remaining kinase activity at 10 uM; details: atp_concentration=10, read-out: % of control remaining
Excerpt: as §1

[14] = target: T7, PI3 Kinase (p120γ)(h) (Homo sapiens, UniProt P48736); experiment: biochemical; design: In vitro kinase panel profiling, per cent remaining kinase activity at 10 uM; details: atp_concentration=100, read-out: % of control remaining
T7 construct: gene PIK3CG
Excerpt: as §1

[15] = target: T8, IGF-1R(h) (Homo sapiens, UniProt P08069); experiment: biochemical; design: In vitro kinase panel profiling, per cent remaining kinase activity at 10 uM; details: atp_concentration=200, read-out: % of control remaining
T8 construct: gene IGF1R
Excerpt: as §1

[16] = target: CDK9/cyclin T1(h) (Homo sapiens, UniProt P50750); experiment: biochemical; design: In vitro kinase panel profiling, per cent remaining kinase activity at 10 uM; details: atp_concentration=45, read-out: % of control remaining
Excerpt: as §1

[17] = target: T9, CK2α2(h) (Homo sapiens, UniProt P19784); experiment: biochemical; design: In vitro kinase panel profiling, per cent remaining kinase activity at 10 uM; details: atp_concentration=10, read-out: % of control remaining
T9 construct: gene CSNK2A2
Excerpt: as §1

[18] = Permeability Papp (AB) MDR1/MDCKII; details: for papp_b_to_a_mean: B to A; for perc_recovery_a_to_b_mean / perc_recovery_a_to_b_inhibitor_mean: recovery A to B; for perc_recovery_b_to_a_mean / perc_recovery_b_to_a_inhibitor_mean: recovery B to A
[19] = In vitro MDR1-MDCKII permeability, A to B, mean
[20] = In vitro MDR1-MDCKII permeability, A to B, no inhibitor
[21] = In vitro MDR1-MDCKII permeability, no inhibitor
[22] = In vitro MDR1-MDCKII permeability, mean
[23] = MDR1-MDCKII, with inhibitor Cyclosporin A
[24] = MDR1-MDCKII, with inhibitor Verapamil

T1 sequence (P80192 whole entry): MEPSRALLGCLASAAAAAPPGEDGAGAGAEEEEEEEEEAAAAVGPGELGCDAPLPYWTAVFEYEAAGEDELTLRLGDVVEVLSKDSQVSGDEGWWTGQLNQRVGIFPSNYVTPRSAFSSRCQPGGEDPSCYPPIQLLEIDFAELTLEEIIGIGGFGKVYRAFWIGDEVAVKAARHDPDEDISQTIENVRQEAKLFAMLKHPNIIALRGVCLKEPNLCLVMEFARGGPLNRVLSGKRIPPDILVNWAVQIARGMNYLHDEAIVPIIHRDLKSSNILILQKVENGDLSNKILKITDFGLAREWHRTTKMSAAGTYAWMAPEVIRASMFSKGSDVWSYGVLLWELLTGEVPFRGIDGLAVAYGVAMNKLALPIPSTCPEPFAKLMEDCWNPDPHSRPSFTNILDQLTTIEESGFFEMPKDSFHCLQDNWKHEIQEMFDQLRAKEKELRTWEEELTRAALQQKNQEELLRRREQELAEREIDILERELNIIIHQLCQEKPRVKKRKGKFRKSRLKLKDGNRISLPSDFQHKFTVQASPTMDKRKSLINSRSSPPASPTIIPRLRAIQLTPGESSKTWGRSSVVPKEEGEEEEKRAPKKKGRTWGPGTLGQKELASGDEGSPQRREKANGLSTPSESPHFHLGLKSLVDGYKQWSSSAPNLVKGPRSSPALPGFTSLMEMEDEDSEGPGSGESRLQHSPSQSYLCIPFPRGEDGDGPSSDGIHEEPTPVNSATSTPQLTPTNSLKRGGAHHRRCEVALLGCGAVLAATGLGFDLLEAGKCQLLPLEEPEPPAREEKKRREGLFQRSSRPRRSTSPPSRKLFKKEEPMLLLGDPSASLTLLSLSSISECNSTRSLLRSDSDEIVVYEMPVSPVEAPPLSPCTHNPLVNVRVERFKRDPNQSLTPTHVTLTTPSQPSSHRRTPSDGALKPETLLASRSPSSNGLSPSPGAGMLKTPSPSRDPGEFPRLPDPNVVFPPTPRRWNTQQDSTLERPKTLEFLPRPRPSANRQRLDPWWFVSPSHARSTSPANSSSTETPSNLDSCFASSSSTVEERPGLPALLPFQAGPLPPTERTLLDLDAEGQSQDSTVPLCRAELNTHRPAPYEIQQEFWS
Chain of PAK2(h) (Q13177 whole entry): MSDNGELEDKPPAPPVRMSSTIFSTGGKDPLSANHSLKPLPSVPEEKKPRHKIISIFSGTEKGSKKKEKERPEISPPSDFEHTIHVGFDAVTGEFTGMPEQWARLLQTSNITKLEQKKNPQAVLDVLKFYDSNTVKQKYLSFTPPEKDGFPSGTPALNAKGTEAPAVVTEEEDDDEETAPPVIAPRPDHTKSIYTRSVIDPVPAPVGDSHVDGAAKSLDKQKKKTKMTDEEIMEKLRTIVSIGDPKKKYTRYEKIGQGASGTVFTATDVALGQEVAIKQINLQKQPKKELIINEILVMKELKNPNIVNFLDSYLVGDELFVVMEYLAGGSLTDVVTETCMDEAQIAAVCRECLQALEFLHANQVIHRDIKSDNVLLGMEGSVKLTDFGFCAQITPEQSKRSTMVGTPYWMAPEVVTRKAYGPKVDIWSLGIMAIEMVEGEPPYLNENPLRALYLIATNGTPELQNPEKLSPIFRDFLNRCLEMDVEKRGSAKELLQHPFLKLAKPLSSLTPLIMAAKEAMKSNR
T7 sequence (P48736 whole entry): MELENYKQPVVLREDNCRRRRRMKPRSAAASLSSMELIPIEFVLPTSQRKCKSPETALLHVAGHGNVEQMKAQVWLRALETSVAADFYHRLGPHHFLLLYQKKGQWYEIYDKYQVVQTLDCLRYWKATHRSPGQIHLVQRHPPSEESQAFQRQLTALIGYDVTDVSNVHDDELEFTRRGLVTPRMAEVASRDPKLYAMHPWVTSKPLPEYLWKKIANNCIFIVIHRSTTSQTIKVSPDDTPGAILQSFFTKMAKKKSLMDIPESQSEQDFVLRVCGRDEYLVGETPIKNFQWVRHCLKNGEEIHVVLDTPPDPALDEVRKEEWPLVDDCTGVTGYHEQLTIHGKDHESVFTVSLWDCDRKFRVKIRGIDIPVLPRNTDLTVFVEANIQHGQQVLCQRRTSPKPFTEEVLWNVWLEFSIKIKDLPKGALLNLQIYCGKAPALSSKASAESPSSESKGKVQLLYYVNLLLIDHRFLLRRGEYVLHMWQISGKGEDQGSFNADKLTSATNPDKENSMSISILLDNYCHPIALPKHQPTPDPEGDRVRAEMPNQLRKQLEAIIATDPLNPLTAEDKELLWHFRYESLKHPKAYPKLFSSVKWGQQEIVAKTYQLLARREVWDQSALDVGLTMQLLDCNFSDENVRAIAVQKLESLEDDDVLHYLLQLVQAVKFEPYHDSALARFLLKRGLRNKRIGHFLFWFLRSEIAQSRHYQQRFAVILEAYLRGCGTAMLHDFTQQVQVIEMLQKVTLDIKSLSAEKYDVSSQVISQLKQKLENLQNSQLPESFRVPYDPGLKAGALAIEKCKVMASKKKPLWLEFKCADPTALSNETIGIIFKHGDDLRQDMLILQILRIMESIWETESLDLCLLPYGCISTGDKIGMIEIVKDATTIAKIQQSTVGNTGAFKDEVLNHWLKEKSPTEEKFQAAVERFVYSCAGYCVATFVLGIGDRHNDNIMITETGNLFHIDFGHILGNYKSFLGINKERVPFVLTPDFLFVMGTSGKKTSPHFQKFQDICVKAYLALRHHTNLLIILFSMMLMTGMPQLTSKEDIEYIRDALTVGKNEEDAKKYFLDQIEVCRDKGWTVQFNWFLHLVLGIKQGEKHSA
Chain of Fyn(h) (P06241 whole entry): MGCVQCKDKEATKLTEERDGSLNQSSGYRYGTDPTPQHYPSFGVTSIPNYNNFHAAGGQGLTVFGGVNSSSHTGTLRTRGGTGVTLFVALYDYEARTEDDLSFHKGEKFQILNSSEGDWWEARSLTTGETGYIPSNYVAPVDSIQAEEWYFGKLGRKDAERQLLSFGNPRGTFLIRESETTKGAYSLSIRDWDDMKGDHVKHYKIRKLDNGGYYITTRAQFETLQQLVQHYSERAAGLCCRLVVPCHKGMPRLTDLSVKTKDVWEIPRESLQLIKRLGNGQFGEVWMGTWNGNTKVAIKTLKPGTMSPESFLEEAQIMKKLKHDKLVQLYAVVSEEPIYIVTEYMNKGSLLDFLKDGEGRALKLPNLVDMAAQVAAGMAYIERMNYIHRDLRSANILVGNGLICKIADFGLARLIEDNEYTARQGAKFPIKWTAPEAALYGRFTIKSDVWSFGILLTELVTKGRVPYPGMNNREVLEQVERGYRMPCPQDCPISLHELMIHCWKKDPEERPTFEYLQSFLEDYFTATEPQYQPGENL
Chain of EphA5(h) (P54756 whole entry): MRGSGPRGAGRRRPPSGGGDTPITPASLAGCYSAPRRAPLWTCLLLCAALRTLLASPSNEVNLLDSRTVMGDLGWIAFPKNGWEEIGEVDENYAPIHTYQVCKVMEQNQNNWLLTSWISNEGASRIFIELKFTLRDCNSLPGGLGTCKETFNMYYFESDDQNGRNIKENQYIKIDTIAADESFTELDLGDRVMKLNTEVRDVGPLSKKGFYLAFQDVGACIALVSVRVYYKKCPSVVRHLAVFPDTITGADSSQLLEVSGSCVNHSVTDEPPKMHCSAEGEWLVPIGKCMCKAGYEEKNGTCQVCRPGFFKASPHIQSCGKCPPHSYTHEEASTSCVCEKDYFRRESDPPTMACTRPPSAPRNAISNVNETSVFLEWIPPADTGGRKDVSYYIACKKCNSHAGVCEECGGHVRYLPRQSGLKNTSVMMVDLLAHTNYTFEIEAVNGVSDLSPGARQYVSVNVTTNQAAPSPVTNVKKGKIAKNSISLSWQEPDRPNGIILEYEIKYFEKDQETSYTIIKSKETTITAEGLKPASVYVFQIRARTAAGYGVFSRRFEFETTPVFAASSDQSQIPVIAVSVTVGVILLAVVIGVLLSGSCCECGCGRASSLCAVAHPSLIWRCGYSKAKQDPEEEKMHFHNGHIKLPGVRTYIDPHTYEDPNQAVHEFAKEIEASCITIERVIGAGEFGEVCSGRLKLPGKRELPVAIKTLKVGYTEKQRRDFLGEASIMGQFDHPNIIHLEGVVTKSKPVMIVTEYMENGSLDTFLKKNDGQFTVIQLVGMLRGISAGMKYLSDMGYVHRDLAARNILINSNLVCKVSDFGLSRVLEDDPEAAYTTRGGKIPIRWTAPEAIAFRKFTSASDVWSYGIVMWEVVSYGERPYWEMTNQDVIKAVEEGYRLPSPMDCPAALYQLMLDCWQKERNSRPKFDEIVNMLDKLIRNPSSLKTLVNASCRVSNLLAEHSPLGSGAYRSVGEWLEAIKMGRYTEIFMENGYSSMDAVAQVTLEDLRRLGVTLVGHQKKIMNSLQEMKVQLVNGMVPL
T5 sequence (P04049 whole entry): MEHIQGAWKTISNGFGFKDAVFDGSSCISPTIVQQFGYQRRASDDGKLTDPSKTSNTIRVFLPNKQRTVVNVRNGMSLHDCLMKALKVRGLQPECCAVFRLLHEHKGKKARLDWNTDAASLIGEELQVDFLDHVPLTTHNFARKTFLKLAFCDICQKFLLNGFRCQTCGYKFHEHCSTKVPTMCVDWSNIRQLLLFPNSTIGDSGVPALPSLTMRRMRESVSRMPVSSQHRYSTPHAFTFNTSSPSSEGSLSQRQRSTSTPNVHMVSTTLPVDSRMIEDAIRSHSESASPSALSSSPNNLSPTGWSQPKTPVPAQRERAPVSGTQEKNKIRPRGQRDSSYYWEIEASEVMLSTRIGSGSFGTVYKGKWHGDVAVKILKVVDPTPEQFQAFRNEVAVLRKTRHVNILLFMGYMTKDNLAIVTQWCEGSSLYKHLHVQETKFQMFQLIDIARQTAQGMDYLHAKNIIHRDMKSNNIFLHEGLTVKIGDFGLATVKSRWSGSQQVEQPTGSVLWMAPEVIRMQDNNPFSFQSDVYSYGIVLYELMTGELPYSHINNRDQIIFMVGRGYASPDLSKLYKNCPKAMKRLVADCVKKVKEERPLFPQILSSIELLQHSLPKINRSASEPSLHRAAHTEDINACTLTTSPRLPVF

CC(C)[C@H](Nc1ncnc2[nH]ccc12)c1ccc2c(c1)S(=O)(=O)CCC2 [ASAP-0008674]
remaining activity at 10 µM ([1]; batch_name=ASAP-0008674-002): 84%
remaining activity at 10 µM ([2]; batch_name=ASAP-0008674-002): 102%
remaining activity at 10 µM ([3]; batch_name=ASAP-0008674-002): 86%
remaining activity at 10 µM ([4]; batch_name=ASAP-0008674-002): 115%
remaining activity at 10 µM ([5]; batch_name=ASAP-0008674-002): 96%
remaining activity at 10 µM ([6]; batch_name=ASAP-0008674-002): 92%
remaining activity at 10 µM ([7]; batch_name=ASAP-0008674-002): 99%
remaining activity at 10 µM ([8]; batch_name=ASAP-0008674-002): 97%
remaining activity at 10 µM ([9]; batch_name=ASAP-0008674-002): 107%
remaining activity at 10 µM ([10]; batch_name=ASAP-0008674-002): 110%
remaining activity at 10 µM ([11]; batch_name=ASAP-0008674-002): 89%
remaining activity at 10 µM ([12]; batch_name=ASAP-0008674-002): 95%
remaining activity at 10 µM ([13]; batch_name=ASAP-0008674-002): 102%
remaining activity at 10 µM ([14]; batch_name=ASAP-0008674-002): 98%
remaining activity at 10 µM ([15]; batch_name=ASAP-0008674-002): 100%
remaining activity at 10 µM ([16]; batch_name=ASAP-0008674-002): 112%
remaining activity at 10 µM ([17]; batch_name=ASAP-0008674-002): 87%
papp_a_to_b_mean [18, 19]: 5.5 ×10⁻⁶ cm/s
papp_a_to_b_mean [18, 20]: 0.12 ×10⁻⁶ cm/s and 0.0631 ×10⁻⁶ cm/s
papp_b_to_a_mean [18, 21]: 5.9 ×10⁻⁶ cm/s and 5.29 ×10⁻⁶ cm/s
efflux_ratio [18, 21]: 49.5 and 83.8
perc_recovery_a_to_b_mean [18, 22]: 85.4%
perc_recovery_a_to_b_mean [18, 21]: 80.0% and 78.8%
perc_recovery_b_to_a_mean [18, 21]: 76.5% and 89.6%
perc_recovery_a_to_b_inhibitor_mean [18, 23]: 83.2%
perc_recovery_a_to_b_inhibitor_mean [18, 24]: 90.5%
perc_recovery_b_to_a_inhibitor_mean [18, 23]: 87.0%
perc_recovery_b_to_a_inhibitor_mean [18, 24]: 86.9%

CC(C)[C@H](Nc1ncnc2[nH]c(-c3cnn(C)c3C#N)cc12)c1ccc2c(n1)OCCO2 [ASAP-0010715]
remaining activity at 10 µM ([1]; batch_name=ASAP-0010715-002): 73%
remaining activity at 10 µM ([2]; batch_name=ASAP-0010715-002): 99%
remaining activity at 10 µM ([3]; batch_name=ASAP-0010715-002): 76%
remaining activity at 10 µM ([4]; batch_name=ASAP-0010715-002): 115%
remaining activity at 10 µM ([5]; batch_name=ASAP-0010715-002): 80%
remaining activity at 10 µM ([6]; batch_name=ASAP-0010715-002): 104%
remaining activity at 10 µM ([7]; batch_name=ASAP-0010715-002): 104%
remaining activity at 10 µM ([8]; batch_name=ASAP-0010715-002): 100%
remaining activity at 10 µM ([9]; batch_name=ASAP-0010715-002): 97%
remaining activity at 10 µM ([10]; batch_name=ASAP-0010715-002): 119%
remaining activity at 10 µM ([11]; batch_name=ASAP-0010715-002): 98%
remaining activity at 10 µM ([12]; batch_name=ASAP-0010715-002): 90%
remaining activity at 10 µM ([13]; batch_name=ASAP-0010715-002): 102%
remaining activity at 10 µM ([14]; batch_name=ASAP-0010715-002): 80%
remaining activity at 10 µM ([15]; batch_name=ASAP-0010715-002): 85%
remaining activity at 10 µM ([16]; batch_name=ASAP-0010715-002): 79%
remaining activity at 10 µM ([17]; batch_name=ASAP-0010715-002): 95%
papp_b_to_a_mean [18, 21]: 5.98 ×10⁻⁶ cm/s
perc_recovery_a_to_b_mean [18, 21]: 70.1% and 79.9%
perc_recovery_b_to_a_mean [18, 21]: 76.7%
perc_recovery_a_to_b_inhibitor_mean [18, 23]: 75.0%
perc_recovery_b_to_a_inhibitor_mean [18, 23]: 76.7%

CC(C)[C@@H](Nc1ncnc2[nH]c(-c3cnn(C)c3C#N)cc12)c1ccc2c(n1)OCCO2 [ASAP-0010716]
remaining activity at 10 µM ([1]; batch_name=ASAP-0010716-002): 82%
remaining activity at 10 µM ([2]; batch_name=ASAP-0010716-002): 99%
remaining activity at 10 µM ([3]; batch_name=ASAP-0010716-002): 86%
remaining activity at 10 µM ([4]; batch_name=ASAP-0010716-002): 107%
remaining activity at 10 µM ([5]; batch_name=ASAP-0010716-002): 55%
remaining activity at 10 µM ([6]; batch_name=ASAP-0010716-002): 95%
remaining activity at 10 µM ([7]; batch_name=ASAP-0010716-002): 102%
remaining activity at 10 µM ([8]; batch_name=ASAP-0010716-002): 99%
remaining activity at 10 µM ([9]; batch_name=ASAP-0010716-002): 90%
remaining activity at 10 µM ([10]; batch_name=ASAP-0010716-002): 120%
remaining activity at 10 µM ([11]; batch_name=ASAP-0010716-002): 102%
remaining activity at 10 µM ([12]; batch_name=ASAP-0010716-002): 77%
remaining activity at 10 µM ([13]; batch_name=ASAP-0010716-002): 90%
remaining activity at 10 µM ([14]; batch_name=ASAP-0010716-002): 78%
remaining activity at 10 µM ([15]; batch_name=ASAP-0010716-002): 94%
remaining activity at 10 µM ([16]; batch_name=ASAP-0010716-002): 84%
remaining activity at 10 µM ([17]; batch_name=ASAP-0010716-002): 93%
papp_a_to_b_mean [18, 19]: 14.6 ×10⁻⁶ cm/s
papp_a_to_b_mean [18, 20]: 1.05 ×10⁻⁶ cm/s and 1.02 ×10⁻⁶ cm/s and 0.676 ×10⁻⁶ cm/s
papp_b_to_a_mean [18, 21]: 6.5 ×10⁻⁶ cm/s and 6.1 ×10⁻⁶ cm/s and 8.26 ×10⁻⁶ cm/s
perc_recovery_a_to_b_mean [18, 22]: 85.7%
perc_recovery_a_to_b_mean [18, 21]: 67.5% and 74.0% and 87.7%
perc_recovery_b_to_a_mean [18, 21]: 70.0% and 84.4% and 95.1%
papp_a_to_b_inhibitor_mean ([18]; MDR1-MDCKII, A to B, with inhibitor Cyclosporin A): 4.51 ×10⁻⁶ cm/s
perc_recovery_a_to_b_inhibitor_mean [18, 23]: 115.0% and 75.2%
perc_recovery_a_to_b_inhibitor_mean [18, 24]: 107.0%
perc_recovery_b_to_a_inhibitor_mean [18, 23]: 106.0% and 78.2%
perc_recovery_b_to_a_inhibitor_mean [18, 24]: 88.6%

— paper doi:10.1101/2024.08.19.608619, “Discovery of potent SARS-CoV-2 nsp3 macrodomain inhibitors uncovers lack of translation to cellular antiviral response” (bioRxiv, 2024)
